Source: patent publication US11702441B2, “Spirobicyclic analogues” (Janssen Pharmaceutica NV, priority 2017, dated 2023)

Target: T1, PRMT5-MEP50 enzyme (Homo sapiens, UniProt O14744)
T1 construct: One virus expresses full length human PRMT5 with Flag-tag at N-terminus; Flag (N); purchased Charles River (Argenta); host or cells: insect cells (Sf9), baculovirus co-infection
Assay: High throughput mass spectrometer assay of PRMT5-MEP50 enzyme activity (SAH formation)
Assay type: biochemical
Conditions: averaged values; inhibition of SAH formation; 1 μM SAM, 0.3 μM H2A, 1.25 nM enzyme, 30° C.
From the text: Reagents. PRMT5-MEP50 enzyme was purchased from Charles River (Argenta). The enzyme complex was produced in insect cells (Sf9) infected simultaneously with two baculoviruses. One virus expresses full length human PRMT5 with Flag-tag at N-terminus, the second virus expresses full length MEP50 with His6-TEV cleavage at N-terminus. The protein was affinity purified using anti-Flag (M2) beads eluted with 3×FLAG peptide, followed by His-Select eluted with 0.5M imidazole. Eluted protein was then dialysed against tris-buffered saline (TBS) (pH 8.0) containing 20% glycerol and 3 mM dithiothreitol (DTT).
Full-length untagged human recombinant histone H2A (residues 1-130, Genbank Accession #NM_021052, MW=14.1 kDa) expressed in E. coli was purchased from Reaction Biology Corporation, Cat #HMT-11-146. Reagents used for making reaction buffer or stopping reaction were purchased including Tris base (Sigma Cat #T-1503), NaCl (Sigma Cat #RGF-3270), MgCl2 (Sigma Cat #M0250), DTT (Invitrogen Cat #15508-013) and Formic Acid (Riedel deHaen, Cat #33015)
High Throughput Mass Spectrometer Assay PRMT5 catalyzes the sequential methylations of the terminal nitrogen atoms on the guanidine groups of arginine residues within proteins using co-substrate S-adenosyl-L-methionine (AdoMet, SAM), forming mono-methyl (MMA), symmetric-dimethyl arginine (sDMA) and S-adenosyl-L-homocysteine (AdoHcy, SAH). The enzyme activity was determined by following the product SAH formation using high throughput mass spectrometry (Agilent Rapidfire 300 System coupled to a Sciex 4000 series QTrap® triple-quad MS/MS). The reaction buffer was 20 mM Tris-HCl, pH 8.5, 50 mM NaCl. 5 mM MgCl2 and 1 mM DTT. The reaction activity was stopped using 1% formic acid (final concentration).
Inhibition Studies. The IC50 Studies were performed using eleven point dosing series made for each compound by serially diluted 1:2 in dimethyl sulfoxide (DMSO), with point 12 being a DMSO control. Compounds were first spotted to plates, and followed by addition of 2 μM SAM and 0.6 μM H2A (histone H2A) solution mixture. The same volume of enzyme solution was added to initiate the enzymatic reactions. The final concentrations of the reaction are at 1 μM SAM, 0.3 μM H2A and 1.25 nM enzyme. The reaction was incubated at 30° C. for 60 minutes (min) when 10 nM enzyme was used and for 120 min when 1.25 nM enzyme was used. Subsequently, the reaction was quenched by addition of formic acid to a final concentration of 1%. The inhibitions of SAH formation in the presence of compounds were calculated as a percentage of the control relative to the uninhibited reaction as a function of inhibitor concentration. The data were fit as follows: Y=Bottom+(Top−Bottom)/(1+10^((log IC50−X)*h))
where IC50 is the inhibitor concentration (same unit as X) at 50% inhibition and h is the Hill slope. Y is percent of inhibition, X is log of compound concentration. Bottom and Top are the plateaus in same units as Y.
The pIC50 values in the Table below are averaged values (Co. No. means compound number: n.d. means not determined)

T1 sequence (O14744 whole entry): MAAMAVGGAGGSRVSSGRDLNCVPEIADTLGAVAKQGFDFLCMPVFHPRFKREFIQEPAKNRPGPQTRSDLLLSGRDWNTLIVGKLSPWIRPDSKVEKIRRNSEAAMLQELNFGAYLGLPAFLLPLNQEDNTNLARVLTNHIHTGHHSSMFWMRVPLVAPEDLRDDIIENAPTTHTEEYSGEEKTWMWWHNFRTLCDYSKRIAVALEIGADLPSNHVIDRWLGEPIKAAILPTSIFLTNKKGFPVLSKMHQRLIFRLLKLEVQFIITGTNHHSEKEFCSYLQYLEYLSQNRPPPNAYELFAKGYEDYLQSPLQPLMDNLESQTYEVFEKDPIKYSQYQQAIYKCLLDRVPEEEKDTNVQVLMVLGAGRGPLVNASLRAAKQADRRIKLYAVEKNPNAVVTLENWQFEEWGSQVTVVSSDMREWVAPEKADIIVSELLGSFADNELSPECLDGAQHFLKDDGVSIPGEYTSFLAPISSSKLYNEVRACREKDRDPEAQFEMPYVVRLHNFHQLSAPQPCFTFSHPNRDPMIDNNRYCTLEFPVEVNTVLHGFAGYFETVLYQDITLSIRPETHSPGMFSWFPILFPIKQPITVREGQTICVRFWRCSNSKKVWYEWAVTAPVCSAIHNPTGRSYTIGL
T1 sequence (Q9BQA1 whole entry partner): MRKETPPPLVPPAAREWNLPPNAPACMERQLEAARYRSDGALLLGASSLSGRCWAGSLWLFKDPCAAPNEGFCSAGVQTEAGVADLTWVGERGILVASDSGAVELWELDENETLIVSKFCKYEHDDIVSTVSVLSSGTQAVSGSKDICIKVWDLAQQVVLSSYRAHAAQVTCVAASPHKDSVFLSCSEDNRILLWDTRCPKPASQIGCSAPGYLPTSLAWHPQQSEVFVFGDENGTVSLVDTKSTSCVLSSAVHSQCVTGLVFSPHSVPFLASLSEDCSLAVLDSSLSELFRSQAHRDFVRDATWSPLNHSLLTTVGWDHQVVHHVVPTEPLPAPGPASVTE

Structure (SMILES)	IC50 [nM]	pIC50
Nc1nc2ccc(C[C@H]3C[C@]4(C[C@@H](n5ccc6c(N)ncnc65)[C@H](O)[C@@H]4O)C3)cc2s1 [Compound 22]	1580	–
Nc1ncnc2c1ncn2[C@@H]1O[C@]2(C[C@@H](OCc3ccccc3)C2)[C@@H](O)[C@H]1O [Compound 1]	3020	–
Nc1ncnc2c1ccn2[C@@H]1C[C@]2(C[C@H](CO)C2)[C@@H](O)[C@H]1O (single isomer, unassigned) [Compound 35]	933	–
Nc1nc2cc(C[C@H]3C[C@@]4(C[C@@H](n5ccc6c(N)ncnc65)[C@H](O)[C@@H]4O)C3)ccc2s1 [Compound 19]	132	–
Nc1ncnc2c1ncn2[C@@H]1O[C@]2(C[C@@H](Cc3ccc4cc(Cl)cnc4c3)C2)[C@@H](O)[C@H]1O [Compound 45]	5500	–
Nc1ncnc2c1ccn2[C@@H]1C[C@]2(C[C@H](Oc3ccc4cc(Cl)cnc4c3)C2)[C@@H](O)[C@H]1O [Compound 12]	2400	–
Nc1ncnc2c1ccn2[C@@H]1C[C@]2(C[C@@H](COc3cccc(Cl)n3)C2)[C@@H](O)[C@H]1O [Compound 31]	3470	–
Nc1ncnc2c1ccn2[C@@H]1C[C@]2(C[C@@H](Cc3ccc4ncsc4c3)C2)[C@@H](O)[C@H]1O [Compound 21]	145	–
Nc1ncnc2c1ccn2[C@@H]1C[C@]2(C[C@@H](CO)C2)[C@@H](O)[C@H]1O (single isomer, unassigned) [Compound 36]	1410	–
Nc1ccc2ccc(O[C@H]3C[C@@]4(C3)O[C@@H](n3cnc5c(N)ncnc53)[C@H](O)[C@@H]4O)cc2n1 [Compound 5]	9.33	–
Nc1nc2cc(C[C@H]3C[C@]4(C[C@@H](n5ccc6c(N)ncnc65)[C@H](O)[C@@H]4O)C3)ccc2s1 [Compound 18]	35.5	–
Nc1ncnc2c1ccn2[C@@H]1C[C@]2(C[C@H](Cc3cccnc3)C2)[C@@H](O)[C@H]1O [Compound 28]	145	–
Nc1ncnc2c1ccn2[C@@H]1C[C@]2(C[C@@H](Cc3cccnc3)C2)[C@@H](O)[C@H]1O [Compound 29]	170	–
Cl.Nc1ncnc2c1ccn2[C@@H]1CC2(CC(Cn3c(Cl)cccc3=O)C2)[C@@H](O)[C@H]1O (mixture of isomers) [Compound 32]	–	5.69
Nc1ncnc2c1ncn2[C@@H]1O[C@]2(C[C@H](Oc3ccc4cc(Br)cnc4c3)C2)[C@@H](O)[C@H]1O [Compound 6]	120	–
Nc1ncnc2c1ccn2[C@@H]1C[C@]2(C[C@@H](Cc3ccccn3)C2)[C@@H](O)[C@H]1O [Compound 27]	5620	–
Nc1ncnc2c1ccn2[C@@H]1C[C@]2(C[C@H](Cc3ccccn3)C2)[C@@H](O)[C@H]1O [Compound 26]	2450	–
Nc1ncnc2c1ccn2[C@@H]1C[C@]2(C[C@H](Cc3ccc4scnc4c3)C2)[C@@H](O)[C@H]1O [Compound 16]	490	–

Structure (SMILES)	IC50 [nM]	pIC50
Nc1nc2ccc(C[C@H]3C[C@@]4(C[C@@H](n5ccc6c(N)ncnc65)[C@H](O)[C@@H]4O)C3)cc2s1 [Compound 23]	295	–
Nc1ncnc2c1ccn2[C@@H]1C[C@]2(C[C@@H](Oc3ccc4cc(Cl)cnc4c3)C2)[C@@H](O)[C@H]1O [Compound 13]	646	–
Nc1ncnc2c1ncn2[C@@H]1O[C@]2(C[C@@H](O)C2)[C@@H](O)[C@H]1O [Compound 7]	5010	–
Nc1ncnc2c1ccn2[C@@H]1C[C@]2(C[C@H](Oc3ccc4cccnc4c3)C2)[C@@H](O)[C@H]1O [Compound 11]	91.2	–
Nc1ncnc2c1ncn2[C@@H]1O[C@]2(C[C@@H](Oc3ccc4cc(Br)cnc4c3)C2)[C@@H](O)[C@H]1O [Compound 4]	3020	–
Nc1ncnc2c1ncn2[C@@H]1O[C@]2(C[C@H](Cc3ccc4cc(Cl)cnc4c3)C2)[C@@H](O)[C@H]1O [Compound 44]	4570	–
Nc1ncnc2c1ccn2[C@@H]1C[C@]2(C[C@@H](Cc3ccc4scnc4c3)C2)[C@@H](O)[C@H]1O [Compound 17]	389	–
Nc1ccc2ccc(O[C@H]3C[C@]4(C3)O[C@@H](n3cnc5c(N)ncnc53)[C@H](O)[C@@H]4O)cc2n1 [Compound 2]	30.9	–
Nc1ncnc2c1ncn2[C@@H]1O[C@]2(C[C@@H](Oc3ccc4ccc(Cl)nc4c3)C2)[C@@H](O)[C@H]1O [Compound 3]	8130	–
Nc1ncnc2c1ncn2[C@@H]1O[C@]2(C[C@H](Oc3ccc4cc(Cl)cnc4c3)C2)[C@@H](O)[C@H]1O [Compound 9]	257	–
Nc1nc2cc(C[C@H]3C[C@]4(C[C@@H](n5ccc6c(N)ncnc65)[C@H](O)[C@@H]4O)C3)ccc2cc1Br [Compound 33]	245	–
Nc1ncnc2c1ccn2[C@@H]1C[C@]2(C[C@H](Cc3ccc4cc(Cl)cnc4c3)C2)[C@@H](O)[C@H]1O [Compound 14]	2000	–
Nc1ncnc2c1ccn2[C@@H]1C[C@]2(C[C@H](Cc3ccn4ccnc4c3)C2)[C@@H](O)[C@H]1O [Compound 24]	9.12	–
Nc1ncnc2c1ccn2[C@@H]1C[C@]2(C[C@@H](Cc3ccc4cc(Cl)cnc4c3)C2)[C@@H](O)[C@H]1O [Compound 15]	1100	–
Nc1ncnc2c1ncn2[C@@H]1O[C@]2(C[C@H](O)C2)[C@@H](O)[C@H]1O [Compound 8]	3550	–
Nc1ncnc2c1ccn2[C@@H]1C[C@]2(C[C@@H](Cc3ccn4ccnc4c3)C2)[C@@H](O)[C@H]1O [Compound 25]	10.2	–
Nc1ncnc2c1ccn2[C@@H]1C[C@]2(C[C@H](Cc3ccc4ncsc4c3)C2)[C@@H](O)[C@H]1O [Compound 20]	490	–
Nc1ncnc2c1ccn2[C@@H]1C[C@]2(C[C@H](COc3cccc(Cl)n3)C2)[C@@H](O)[C@H]1O [Compound 30]	1620	–
